Key:
Experiment in all cases: Kinase selectivity, scanMAX Kinase assay panel (DiscoverX), % control at 1 uM
Assay type in all cases: binding
[1] = molecular target: T1, scanMAX Kinase assay panel (Homo sapiens, UniProt P51956); settings: NEK3; 1 uM; read-out: Percent Control (%)
T1 construct: purchased DiscoverX
T1 sequence (P51956 1-506): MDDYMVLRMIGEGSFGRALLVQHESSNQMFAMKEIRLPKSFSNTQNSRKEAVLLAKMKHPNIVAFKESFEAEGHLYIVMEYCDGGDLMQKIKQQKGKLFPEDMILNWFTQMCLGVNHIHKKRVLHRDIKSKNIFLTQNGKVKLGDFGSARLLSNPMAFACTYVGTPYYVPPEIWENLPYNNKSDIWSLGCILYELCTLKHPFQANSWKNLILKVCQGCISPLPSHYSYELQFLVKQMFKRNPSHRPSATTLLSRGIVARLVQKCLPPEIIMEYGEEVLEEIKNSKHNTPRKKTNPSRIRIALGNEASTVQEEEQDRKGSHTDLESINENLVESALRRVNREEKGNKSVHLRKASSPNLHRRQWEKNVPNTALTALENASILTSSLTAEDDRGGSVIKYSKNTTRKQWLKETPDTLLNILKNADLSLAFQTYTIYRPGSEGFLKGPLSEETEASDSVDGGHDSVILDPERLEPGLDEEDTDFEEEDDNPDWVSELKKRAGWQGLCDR
Summary of the method: (§1)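 Binding across the scanMAX kinase panel was tested at 1 uM compound. % control = (compound − positive control)/(negative control − positive control) × 100; below 35 counted as active.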

[2] = molecular target: T2, scanMAX Kinase assay panel (Homo sapiens, UniProt Q15375); settings: EPHA7; 1 uM; read-out: Percent Control (%)
T2 construct: purchased DiscoverX
T2 sequence (Q15375 28-998): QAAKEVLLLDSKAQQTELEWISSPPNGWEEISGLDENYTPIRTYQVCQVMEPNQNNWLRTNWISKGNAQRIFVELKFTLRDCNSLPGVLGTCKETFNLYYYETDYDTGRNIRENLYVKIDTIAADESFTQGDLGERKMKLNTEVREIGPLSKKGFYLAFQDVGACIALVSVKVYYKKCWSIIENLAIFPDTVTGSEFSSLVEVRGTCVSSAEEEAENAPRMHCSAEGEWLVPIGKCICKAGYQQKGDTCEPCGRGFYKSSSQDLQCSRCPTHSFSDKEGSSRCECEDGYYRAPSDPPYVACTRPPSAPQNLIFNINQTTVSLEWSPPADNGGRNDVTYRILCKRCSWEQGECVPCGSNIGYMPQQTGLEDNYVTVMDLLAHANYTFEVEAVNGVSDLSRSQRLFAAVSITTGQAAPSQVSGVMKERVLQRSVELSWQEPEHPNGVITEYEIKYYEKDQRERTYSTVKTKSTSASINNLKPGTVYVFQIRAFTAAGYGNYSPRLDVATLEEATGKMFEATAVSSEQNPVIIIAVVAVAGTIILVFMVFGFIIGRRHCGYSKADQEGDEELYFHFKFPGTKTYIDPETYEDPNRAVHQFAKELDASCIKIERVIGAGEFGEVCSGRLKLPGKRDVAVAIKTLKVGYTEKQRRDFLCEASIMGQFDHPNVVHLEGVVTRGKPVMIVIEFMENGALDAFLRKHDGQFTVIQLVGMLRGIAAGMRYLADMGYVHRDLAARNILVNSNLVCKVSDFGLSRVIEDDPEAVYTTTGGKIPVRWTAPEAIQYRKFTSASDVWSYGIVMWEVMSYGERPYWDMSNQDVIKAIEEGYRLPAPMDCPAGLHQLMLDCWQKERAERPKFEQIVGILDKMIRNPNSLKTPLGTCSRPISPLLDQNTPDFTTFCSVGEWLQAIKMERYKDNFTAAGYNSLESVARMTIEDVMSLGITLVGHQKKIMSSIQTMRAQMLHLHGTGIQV
Summary of the method: as §1

[3] = molecular target: T3, scanMAX Kinase assay panel (Homo sapiens, UniProt Q96Q40); settings: PFTAIRE2; 1 uM; read-out: Percent Control (%)
T3 construct: purchased DiscoverX
T3 sequence (Q96Q40 whole entry): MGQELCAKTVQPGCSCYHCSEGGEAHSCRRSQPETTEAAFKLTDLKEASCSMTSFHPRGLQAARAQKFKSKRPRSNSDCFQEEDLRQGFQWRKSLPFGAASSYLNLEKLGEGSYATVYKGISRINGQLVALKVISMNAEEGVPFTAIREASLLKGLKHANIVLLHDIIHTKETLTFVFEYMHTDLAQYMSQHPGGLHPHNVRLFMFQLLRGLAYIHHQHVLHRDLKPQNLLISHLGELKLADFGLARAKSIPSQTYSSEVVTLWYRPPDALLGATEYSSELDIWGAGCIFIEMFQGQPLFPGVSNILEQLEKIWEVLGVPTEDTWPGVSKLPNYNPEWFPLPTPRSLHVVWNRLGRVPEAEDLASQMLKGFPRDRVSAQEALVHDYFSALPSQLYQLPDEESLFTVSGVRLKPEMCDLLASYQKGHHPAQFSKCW
Summary of the method: as §1

[4] = molecular target: T4, scanMAX Kinase assay panel (Homo sapiens, UniProt Q9UEW8); settings: STK39; 1 uM; read-out: Percent Control (%)
T4 construct: purchased DiscoverX
Summary of the method: as §1

[5] = molecular target: T5, scanMAX Kinase assay panel (Homo sapiens, UniProt P49137); settings: MAPKAPK2; 1 uM; read-out: Percent Control (%)
T5 construct: purchased DiscoverX
T5 sequence (P49137 whole entry): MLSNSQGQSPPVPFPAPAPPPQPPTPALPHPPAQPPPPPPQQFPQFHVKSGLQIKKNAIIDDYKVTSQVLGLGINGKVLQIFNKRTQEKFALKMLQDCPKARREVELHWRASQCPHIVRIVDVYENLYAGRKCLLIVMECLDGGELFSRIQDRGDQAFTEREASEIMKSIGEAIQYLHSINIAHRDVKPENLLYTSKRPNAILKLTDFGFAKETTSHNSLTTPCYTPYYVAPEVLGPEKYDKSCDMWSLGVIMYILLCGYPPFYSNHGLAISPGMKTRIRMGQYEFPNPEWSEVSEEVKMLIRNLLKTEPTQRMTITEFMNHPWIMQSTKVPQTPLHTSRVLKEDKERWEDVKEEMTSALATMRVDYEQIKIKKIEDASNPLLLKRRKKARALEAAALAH
Summary of the method: as §1

[6] = molecular target: T6, scanMAX Kinase assay panel (Homo sapiens, UniProt Q9NRP7); settings: STK36; 1 uM; read-out: Percent Control (%)
T6 construct: purchased DiscoverX
T6 sequence (Q9NRP7 1-1315): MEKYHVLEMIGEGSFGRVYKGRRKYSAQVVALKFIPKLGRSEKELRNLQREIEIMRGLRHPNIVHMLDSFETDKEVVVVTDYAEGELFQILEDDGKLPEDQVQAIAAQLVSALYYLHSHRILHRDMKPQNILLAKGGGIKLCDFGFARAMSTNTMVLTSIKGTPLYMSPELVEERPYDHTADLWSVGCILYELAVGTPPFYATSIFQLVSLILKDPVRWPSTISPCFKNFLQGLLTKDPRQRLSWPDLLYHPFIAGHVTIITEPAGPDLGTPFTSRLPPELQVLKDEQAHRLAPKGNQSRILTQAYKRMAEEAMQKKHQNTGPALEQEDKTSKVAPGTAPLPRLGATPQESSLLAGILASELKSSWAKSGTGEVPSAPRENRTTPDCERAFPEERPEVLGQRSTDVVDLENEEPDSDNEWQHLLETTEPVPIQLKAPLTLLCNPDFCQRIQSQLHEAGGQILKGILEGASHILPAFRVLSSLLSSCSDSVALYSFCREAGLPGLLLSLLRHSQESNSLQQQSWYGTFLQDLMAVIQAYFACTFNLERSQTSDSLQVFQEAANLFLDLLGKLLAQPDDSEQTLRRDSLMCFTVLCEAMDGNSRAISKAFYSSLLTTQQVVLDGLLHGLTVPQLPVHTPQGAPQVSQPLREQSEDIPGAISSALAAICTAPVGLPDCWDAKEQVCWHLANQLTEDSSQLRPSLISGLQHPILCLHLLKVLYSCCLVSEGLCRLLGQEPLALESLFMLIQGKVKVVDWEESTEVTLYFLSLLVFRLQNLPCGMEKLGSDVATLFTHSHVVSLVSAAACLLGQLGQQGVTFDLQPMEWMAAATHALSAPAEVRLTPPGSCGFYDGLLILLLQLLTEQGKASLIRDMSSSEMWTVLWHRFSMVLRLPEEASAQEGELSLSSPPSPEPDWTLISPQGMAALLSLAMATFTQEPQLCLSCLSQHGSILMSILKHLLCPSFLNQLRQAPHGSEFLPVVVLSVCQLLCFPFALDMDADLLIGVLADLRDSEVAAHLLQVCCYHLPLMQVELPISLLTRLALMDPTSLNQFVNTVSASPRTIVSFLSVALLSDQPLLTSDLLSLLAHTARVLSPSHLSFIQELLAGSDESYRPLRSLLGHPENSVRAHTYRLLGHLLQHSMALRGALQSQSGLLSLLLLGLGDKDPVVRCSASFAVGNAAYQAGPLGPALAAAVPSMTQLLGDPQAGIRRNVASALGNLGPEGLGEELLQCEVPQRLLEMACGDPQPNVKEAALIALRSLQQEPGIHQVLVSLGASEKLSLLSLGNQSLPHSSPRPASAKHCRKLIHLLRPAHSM
Summary of the method: as §1

| Compound | remaining binding at 1 µM [1] | remaining binding at 1 µM [2] | remaining binding at 1 µM [3] | remaining binding at 1 µM [4] | remaining binding at 1 µM [5] | remaining binding at 1 µM [6] |
| --- | --- | --- | --- | --- | --- | --- |
| Cc1ccc(NC(=O)C2(C(=O)Nc3ccc(F)cc3)CC2)cc1C#Cc1cnc2c(Nc3cnn(C(C)C)c3)cccn12 [Example 78] | 96% | 100% | 100% | 89% | 98% | 100% |
| Cc1cn(-c2cc(NC(=O)c3ccc(C)c(C#Cc4cnc5c(Nc6cnn(C)c6)cccn45)c3)cc(C(F)(F)F)c2)cn1 [Example 12, 4-methyl-N-(3-(4-methyl-1H-imidazol-1-yl)-5-(trifluoromethyl)phenyl)-3-((8-((1-methyl-1H-pyrazol-4-yl)amino)imidazo[1,2-a]pyridin-3-yl)ethynyl)benzamide] | 86% | 69% | 75% | 87% | 81% | 89% |
| Cc1ccc(C(=O)Nc2ccc(CN3CCN(C)CC3)c(C(F)(F)F)c2)cc1C#Cc1cnc2c(Nc3cnn(C)c3)cccn12 [Example 1, 4-methyl-3-((8-((1-methyl-1H-pyrazol-4-yl)amino)imidazo[1,2-a]pyridin-3-yl)ethynyl)-N-(4-((4-methylpiperazin-1-yl)methyl)-3-(trifluoromethyl)phenyl)benzamide] | 64% | 5% | 6% | 97% | 100% | 1% |
